Source: patent US6030643A, “Potassium, sodium and tris oxaprozin salt pharmaceutical formulations” (priority 1997, dated 2000)
Structures can show the parent of a compound that is named as a salt. Where two headings read alike, the source gives them in different places.

Key:
[1] = Solubility of oxaprozin and its salts; type: physicochemical
Light sensitivity = type: physicochemical

SMILES	solubility ([1]; read-out: Solubility) [mg/mL]	solubility [1] [mg/mL]	Photosensitivity (Light sensitivity)
O=C([O-])CCc1nc(-c2ccccc2)c(-c2ccccc2)o1.[Na+] [sodium salt of oxaprozin, 4,5-diphenyl-2-oxazolepropanoic acid, sodium salt]	260	–	–
O=C(O)CCc1nc(-c2ccccc2)c(-c2ccccc2)o1 [oxaprozin, 4,5-diphenyl-2-oxazolepropionic acid]	–	1.7	–
O=C([O-])CCc1nc(-c2ccccc2)c(-c2ccccc2)o1.[K+] [potassium salt of oxaprozin, 4,5-diphenyl-2-oxazolepropanoic acid, potassium salt]	370	–	photosensitive material
O=C(O)CCc1nc(-c2ccccc2)c(-c2ccccc2)o1 [TRIS salt of oxaprozin, 4,5-diphenyl-2-oxazolepropanoic acid, tris(hydroxymethyl)aminomethanesalt]	–	380	–
